Measured values as given in US10118935B2, “Melampomagnolide B dimers” (priority 2014, dated 2018).

Assays:
[1] = tested on: COLO 205; assay: NCI 60 cell line five dose, Colon Cancer
[2] = tested on: SK-OV-3; assay: NCI 60 cell line five dose, Ovarian Cancer
[3] = tested on: UO-31; assay: NCI 60 cell line five dose, Renal Cancer
[4] = tested on: OVCAR-5; assay: NCI 60 cell line five dose, Ovarian Cancer
[5] = tested on: SK-MEL-28; assay: NCI 60 cell line five dose, Melanoma
[6] = tested on: HCC-2998; assay: NCI 60 cell line five dose, Colon Cancer
[7] = tested on: M14; assay: NCI 60 cell line five dose, Melanoma
[8] = tested on: HCT-116; assay: NCI 60 cell line five dose, Colon Cancer
[9] = tested on: RXF 393; assay: NCI 60 cell line five dose, Renal Cancer
[10] = tested on: OVCAR-8; assay: NCI 60 cell line five dose, Ovarian Cancer
[11] = tested on: SF-539; assay: NCI 60 cell line five dose, CNS Cancer
[12] = tested on: BT-549; assay: NCI 60 cell line five dose, Breast Cancer
[13] = tested on: K-562; assay: NCI 60 cell line five dose, Leukemia
[14] = tested on: UACC-62; assay: NCI 60 cell line five dose, Melanoma
[15] = tested on: SF-295; assay: NCI 60 cell line five dose, CNS Cancer
[16] = tested on: KM12; assay: NCI 60 cell line five dose, Colon Cancer
[17] = tested on: RPMI-8226; assay: NCI 60 cell line five dose, Leukemia
[18] = tested on: HOP-92; assay: NCI 60 cell line five dose, Non-Small Cell Lung Cancer
[19] = tested on: MALME-3M; assay: NCI 60 cell line five dose, Melanoma; conditions: MAL1ME−3M
[20] = tested on: HCT-15; assay: NCI 60 cell line five dose, Colon Cancer
[21] = tested on: 786-0; assay: NCI 60 cell line five dose, Renal Cancer
[22] = tested on: OVCAR-3; assay: NCI 60 cell line five dose, Ovarian Cancer
[23] = tested on: U251; assay: NCI 60 cell line five dose, CNS Cancer

## C=C1C(=O)O[C@H]2[C@H]1CC/C(COC(=O)NCCCCCCCCNC(=O)OC/C1=C/CC[C@@]3(C)O[C@H]3[C@H]3OC(=O)C(=C)[C@@H]3CC1)=C\CC[C@@]1(C)O[C@@H]21 [JVM 3-62, bis(((1aR,7aS, 10aS, 10bS, E)-1a-Methyl-8-methylene-9-oxo-1a,2,3,6,7,7a,8,9,10a,10b-decahydrooxireno[2′,3′:9,10]cyclodeca[1,2-b]furan-5-yl)methyl)octane-1,8-diyldicarbamate]
[1]; Log10 Concentration −4.0
  Percent Growth: −65%
[1]; Log10 Concentration −5.0
  Percent Growth: −73%
[1]; Log10 Concentration −6.0
  Percent Growth: −15%
[1]; Log10 Concentration −7.0
  Percent Growth: 109%
[1]; Log10 Concentration −8.0
  Percent Growth: 104%
[1]; molar
  GI50: 300 nM
  TGI: 7.56E−7
[1]; read-out: LC50, molar
  CC50: 3.99 µM
[2]; Log10 Concentration −4.0
  Percent Growth: −100%
[2]; Log10 Concentration −5.0
  Percent Growth: 10%
[2]; Log10 Concentration −6.0
  Percent Growth: 101%
[2]; Log10 Concentration −7.0
  Percent Growth: 108%
[2]; Log10 Concentration −8.0
  Percent Growth: 108%
[2]; molar
  GI50: 3.64 µM
[3]; Log10 Concentration −4.0
  Percent Growth: −87%
[3]; Log10 Concentration −5.0
  Percent Growth: −94%
[3]; Log10 Concentration −6.0
  Percent Growth: 48%
[3]; Log10 Concentration −7.0
  Percent Growth: 90%
[3]; Log10 Concentration −8.0
  Percent Growth: 90%
[3]; molar
  GI50: 880 nM
  TGI: 2.17E−6
[3]; read-out: LC50, molar
  CC50: 4.9 µM
[4]; Log10 Concentration −4.0
  Percent Growth: −77%
[4]; Log10 Concentration −5.0
  Percent Growth: −80%
[4]; Log10 Concentration −6.0
  Percent Growth: −4%
[4]; Log10 Concentration −7.0
  Percent Growth: 91%
[4]; Log10 Concentration −8.0
  Percent Growth: 92%
[4]; molar
  GI50: 269 nM
  TGI: 9.12E−7
[4]; read-out: LC50, molar
  CC50: 4.04 µM
[5]; Log10 Concentration −4.0
  Percent Growth: −71%
[5]; Log10 Concentration −5.0
  Percent Growth: −77%
[5]; Log10 Concentration −6.0
  Percent Growth: −37%
[5]; Log10 Concentration −7.0
  Percent Growth: 90%
[5]; Log10 Concentration −8.0
  Percent Growth: 92%
[5]; molar
  GI50: 205 nM
  TGI: 5.11E−7
[5]; read-out: LC50, molar
  CC50: 2120 nM
[6]; Log10 Concentration −4.0
  Percent Growth: −92%
[6]; Log10 Concentration −5.0
  Percent Growth: −93%
[6]; Log10 Concentration −6.0
  Percent Growth: 63%
[6]; Log10 Concentration −7.0
  Percent Growth: 98%
[6]; Log10 Concentration −8.0
  Percent Growth: 100%
[6]; molar
  GI50: 1200 nM
  TGI: 2.52E−6
[6]; read-out: LC50, molar
  CC50: 5.28 µM
[7]; Log10 Concentration −4.0
  Percent Growth: −76%
[7]; Log10 Concentration −5.0
  Percent Growth: −71%
[7]; Log10 Concentration −6.0
  Percent Growth: −10%
[7]; Log10 Concentration −7.0
  Percent Growth: 95%
[7]; Log10 Concentration −8.0
  Percent Growth: 95%
[7]; molar
  GI50: 272 nM
  TGI: 8.00E−7
[7]; read-out: LC50, molar
  CC50: 4.53 µM
[8]; Log10 Concentration −4.0
  Percent Growth: −86%
[8]; Log10 Concentration −5.0
  Percent Growth: −92%
[8]; Log10 Concentration −6.0
  Percent Growth: −62%
[8]; Log10 Concentration −7.0
  Percent Growth: 97%
[8]; Log10 Concentration −8.0
  Percent Growth: 98%
[8]; molar
  GI50: 195 nM
  TGI: 4.07E−7
[8]; read-out: LC50, molar
  CC50: 837 nM
[9]; Log10 Concentration −4.0
  Percent Growth: −76%
[9]; Log10 Concentration −5.0
  Percent Growth: −92%
[9]; Log10 Concentration −6.0
  Percent Growth: −82%
[9]; Log10 Concentration −7.0
  Percent Growth: 85%
[9]; Log10 Concentration −8.0
  Percent Growth: 96%
[9]; molar
  GI50: 162 nM
  TGI: 3.22E−7
[9]; read-out: LC50, molar
  CC50: 640 nM
[10]; Log10 Concentration −4.0
  Percent Growth: −55%
[10]; Log10 Concentration −5.0
  Percent Growth: −51%
[10]; Log10 Concentration −6.0
  Percent Growth: 6%
[10]; Log10 Concentration −7.0
  Percent Growth: 96%
[10]; Log10 Concentration −8.0
  Percent Growth: 100%
[10]; molar
  GI50: 326 nM
[10]; read-out: LC50, molar
  CC50: 6.77 µM
[11]; Log10 Concentration −4.0
  Percent Growth: −83%
[11]; Log10 Concentration −5.0
  Percent Growth: −91%
[11]; Log10 Concentration −6.0
  Percent Growth: −27%
[11]; Log10 Concentration −7.0
  Percent Growth: 95%
[11]; Log10 Concentration −8.0
  Percent Growth: 89%
[11]; molar
  GI50: 235 nM
  TGI: 5.99E−7
[11]; read-out: LC50, molar
  CC50: 2260 nM
[12]; Log10 Concentration −4.0
  Percent Growth: −85%
[12]; Log10 Concentration −5.0
  Percent Growth: −80%
[12]; Log10 Concentration −6.0
  Percent Growth: −14%
[12]; Log10 Concentration −7.0
  Percent Growth: 94%
[12]; Log10 Concentration −8.0
  Percent Growth: 94%
[12]; molar
  GI50: 257 nM
  TGI: 7.48E−7
[12]; read-out: LC50, molar
  CC50: 3.57 µM
[13]; Log10 Concentration −4.0
  Percent Growth: −44%
[13]; Log10 Concentration −5.0
  Percent Growth: −14%
[13]; Log10 Concentration −6.0
  Percent Growth: 2%
[13]; Log10 Concentration −7.0
  Percent Growth: 107%
[13]; Log10 Concentration −8.0
  Percent Growth: 103%
[13]; molar
  GI50: 349 nM
  TGI: 1.37E−6
[13]; read-out: LC50, molar
  CC50: > 100 µM
[14]; Log10 Concentration −4.0
  Percent Growth: −77%
[14]; Log10 Concentration −5.0
  Percent Growth: −84%
[14]; Log10 Concentration −6.0
  Percent Growth: −39%
[14]; Log10 Concentration −7.0
  Percent Growth: 87%
[14]; Log10 Concentration −8.0
  Percent Growth: 96%
[14]; molar
  GI50: 197 nM
  TGI: 4.88E−7
[14]; read-out: LC50, molar
  CC50: 1720 nM
[15]; Log10 Concentration −4.0
  Percent Growth: −87%
[15]; Log10 Concentration −5.0
  Percent Growth: −40%
[15]; Log10 Concentration −6.0
  Percent Growth: 87%
[15]; Log10 Concentration −7.0
  Percent Growth: 92%
[15]; Log10 Concentration −8.0
  Percent Growth: 85%
[15]; molar
  GI50: 1950 nM
  TGI: 4.82E−6
[15]; read-out: LC50, molar
  CC50: 16.2 µM
[16]; Log10 Concentration −4.0
  Percent Growth: −83%
[16]; Log10 Concentration −5.0
  Percent Growth: −66%
[16]; Log10 Concentration −6.0
  Percent Growth: 65%
[16]; Log10 Concentration −7.0
  Percent Growth: 105%
[16]; Log10 Concentration −8.0
  Percent Growth: 102%
[16]; molar
  GI50: 1290 nM
[16]; read-out: LC50, molar
  CC50: 7.49 µM
[17]; Log10 Concentration −4.0
  Percent Growth: −38%
[17]; Log10 Concentration −5.0
  Percent Growth: −45%
[17]; Log10 Concentration −6.0
  Percent Growth: −13%
[17]; Log10 Concentration −7.0
  Percent Growth: 92%
[17]; Log10 Concentration −8.0
  Percent Growth: 98%
[17]; molar
  GI50: 250 nM
  TGI: 7.45E−7
[17]; read-out: LC50, molar
  CC50: > 100 µM
[18]; Log10 Concentration −4.0
  Percent Growth: −88%
[18]; Log10 Concentration −5.0
  Percent Growth: −92%
[18]; Log10 Concentration −6.0
  Percent Growth: −26%
[18]; Log10 Concentration −7.0
  Percent Growth: 75%
[18]; Log10 Concentration −8.0
  Percent Growth: 87%
[18]; molar
  GI50: 177 nM
  TGI: 5.51E−7
[18]; read-out: LC50, molar
  CC50: 2290 nM
[19]; Log10 Concentration −4.0
  Percent Growth: −65%
[19]; Log10 Concentration −5.0
  Percent Growth: −58%
[19]; Log10 Concentration −6.0
  Percent Growth: −55%
[19]; Log10 Concentration −7.0
  Percent Growth: 95%
[19]; Log10 Concentration −8.0
  Percent Growth: 95%
[19]; molar
  GI50: 199 nM
[19]; read-out: LC50, molar
  CC50: 929 nM
[20]; Log10 Concentration −4.0
  Percent Growth: 83%
[20]; Log10 Concentration −5.0
  Percent Growth: −90%
[20]; Log10 Concentration −6.0
  Percent Growth: 16%
[20]; Log10 Concentration −7.0
  Percent Growth: 90%
[20]; Log10 Concentration −8.0
  Percent Growth: 91%
[20]; molar
  GI50: 346 nM
  TGI: 1.41E−6
[20]; read-out: LC50, molar
  CC50: 4.16 µM
[21]; Log10 Concentration −4.0
  Percent Growth: −81%
[21]; Log10 Concentration −5.0
  Percent Growth: −81%
[21]; Log10 Concentration −6.0
  Percent Growth: −32%
[21]; Log10 Concentration −7.0
  Percent Growth: 95%
[21]; Log10 Concentration −8.0
  Percent Growth: 95%
[21]; molar
  GI50: 244 nM
[21]; read-out: LC50, molar
  CC50: 2930 nM
[22]; Log10 Concentration −4.0
  Percent Growth: −100%
[22]; Log10 Concentration −5.0
  Percent Growth: −98%
[22]; Log10 Concentration −6.0
  Percent Growth: 3%
[22]; Log10 Concentration −7.0
  Percent Growth: 101%
[22]; Log10 Concentration −8.0
  Percent Growth: 102%
[22]; molar
  GI50: 330 nM
  TGI: 1.08E−6
[22]; read-out: LC50, molar
  CC50: 3.32 µM
[23]; Log10 Concentration −4.0
  Percent Growth: −77%
[23]; Log10 Concentration −5.0
  Percent Growth: −79%
[23]; Log10 Concentration −6.0
  Percent Growth: −18%
[23]; Log10 Concentration −7.0
  Percent Growth: 91%
[23]; Log10 Concentration −8.0
  Percent Growth: 96%
[23]; molar
  GI50: 578 nM
  TGI: 2.00E−6
[23]; read-out: LC50, molar
  CC50: 5.13 µM
